{"source": "patent US20230172958A1", "about": "“USE OF COMPOUNDS FOR TREATING VIRAL INFECTIONS” (priority 2020, published 2023)", "key": {"V-ATPase": {"tested_on": "V-ATPase", "assay": "V-ATPase ELISA (Human V-Type Proton ATPase ELISA kit) on treated MDAMB231 cells", "type": "cell-based", "details": "100 nM (0.1 μM)/10,000 cells, 48 hours", "method": "An ELISA test was performed using Human V-Type Proton ATPase ELISA kit (My BioSource Catlog no: MBS911862) to determine the V-ATPase inhibitory effect of the compounds of the present invention.\nProcedure: 1.0 million cells of MDAMB231 (cell line rich in V-ATPase) were plated on 60 mm plates for 24 hours at 37° C. and 5% CO2. The cells were treated with the test compounds (Formula A to U) at a concentration of 100 nM (0.1 μM)/10,000 cells and incubated for 48 hours. After incubation the supernatant was discarded, the cells were washed with D.P.B.S. (Dulbecco's phosphate-buffered saline), scraped and stored at −80° C. for 48 hours. The cells were thawed, vortexed, homogenized for 7 minutes, followed by centrifugation for 3 minutes at 3000 R.P.M. The supernatant was taken for V-ATPase Assay.\nStandards and samples were pipetted into the wells. Antibody specific for V-ATPase was pre-coated onto a microplate. Any V-ATPase present in the standard /sample would get bound by the immobilized antibody. After the incubation period any unbound substances were removed by washing and a biotin-conjugated antibody specific for V-ATPase was added to the wells and plates were re-incubated at 37° C. and 5% CO2. After washing, avidin conjugated Horseradish Peroxidase (HRP) was added to the wells. Following a wash to remove any unbound avidin-enzyme reagent, a substrate solution was added to the wells and colour developed was in proportion to the amount of V-ATPase bound in the initial step. The colour development was stopped, and the optical density was measured at 450 nm spectrophotometrically. The concentration of V-ATPase was then calculated by substituting the optical density in the regression equation obtained from the standards. Percent (%) reduction in V-ATPase was calculated by subtracting the amount of V-ATPase obtained from the untreated/conc. of V-ATPase in untreated X100."}, "[1]": {"assay": "Cytotoxicity by Hoechst 33342 / Sytox orange staining", "type": "cell-based", "details": "African green monkey, Vero E6 cells", "method": "The assay was done in a 96 well plate format in 3 wells for each sample. 1×10e4 Vero E6 cells were plated per well and incubated at 37° C. overnight for monolayer formation. Next day, cells were incubated with the test substance (TS) at the indicated concentration with final DMSO concentration being 0.5%. The Control cells were incubated with 0.5% DMSO only. 24 and 48 hours later, cells were stained with Hoechst 33342 and Sytox orange dye. Images were taken at 10×, 16 images per well, which covers 90% of the well area using ImageXpress Microconfocal (Molecular Devices). Hoechst 33342 nucleic acid stain is a popular cell-permanent nuclear counterstain that emits blue fluorescence when bound to dsDNA. It stains all the live and dead cells. Sytox orange dye stains the nucleic acid in the cells with compromised membranes. This stain is an indicator of cell death. First, the software will count total number of cells in the Hoechst image. In the Sytox image, it will count, among Hoechst positive cells, how many cells are positive for Sytox."}}}
{"smiles": "COC1COC(Oc2ccc(-c3ccc4c(c3)OCO4)c3ccccc23)C(O)C1OC", "note": "(stereo not drawn) [Compound of Formula E, 2-(1-(benzo[d][1,3]dioxol-5-yl)naphthalen-4-yloxy)-tetrahydro-4,5-dimethoxy-2H-pyran-3-ol]", "values": [{"measurement": "reduction of V-ATPase (%)", "setting": "V-ATPase", "result": 15.6, "unit": "%"}, {"measurement": "viability at 24 h, 10 µM", "setting": "[1]; 24 hours, read-out: % Cell viability 24 hours", "result": 99.6, "unit": "%"}, {"measurement": "viability at 48 h, 10 µM", "setting": "[1]; 48 hours, read-out: % Cell viability 48 hours", "result": 77.8, "unit": "%"}]}
